Source: ChEMBL document CHEMBL3596193, “Pradimicin A, a D-mannose-binding antibiotic, binds pyranosides of L-fucose and L-galactose in a calcium-sensitive manner” (Bioorg Med Chem Lett, 2015)

Columns and labels:
[1] = Binding affinity to alpha-L-Galactose-OMe assessed as molar ratio of sugar to compound in aggregate at 2 umol incubated at 60 degC for 15 mins, room temperature for 1 hr, and 4 degC for 1 hr by co-precipitation method in presence of 100 umol CaCl2
[2] = Binding affinity to alpha-L-[…]-OMe assessed as molar ratio of sugar to compound in aggregate at 2 umol at pH 6 by 1H NMR analysis in presence of 20 umol CaCl2
[3] = Binding affinity to D-Arabinose assessed as molar ratio of sugar to compound in aggregate at 2 umol at pH 6 by 1H NMR analysis in presence of 20 umol CaCl2
[4] = Binding affinity to L-[…] assessed as molar ratio of sugar to compound in aggregate at 2 umol incubated at 60 degC for 15 mins, room temperature for 1 hr, and 4 degC for 1 hr by co-precipitation method in presence of 100 umol CaCl2
[5] = Binding affinity to D-Glucose assessed as molar ratio of sugar to compound in aggregate at 2 umol at pH 6 by 1H NMR analysis in presence of 20 umol CaCl2
[6] = Binding affinity to alpha-L-Galactose-OMe assessed as molar ratio of sugar to compound in aggregate at 2 umol at pH 6 by 1H NMR analysis in presence of 20 umol CaCl2
[7] = Binding affinity to D-Mannose assessed as molar ratio of sugar to compound in aggregate at 2 umol at pH 6 incubated at 60 degC for 15 mins, room temperature for 1 hr, and 4 degC for 1 hr by co-precipitation method in presence of 100 umol CaCl2
[8] = Binding affinity to beta-L-Galactose-OMe assessed as molar ratio of sugar to compound in aggregate at 2 umol incubated at 60 degC for 15 mins, room temperature for 1 hr, and 4 degC for 1 hr by co-precipitation method in presence of 100 umol CaCl2
[9] = Binding affinity to L-[…] assessed as molar ratio of sugar to compound in aggregate at 2 umol at pH 6 by 1H NMR analysis in presence of 20 umol CaCl2
[10] = Binding affinity to D-Glucose assessed as molar ratio of sugar to compound in aggregate at pH 4.5 by co-precipitation method in presence of Ca2+
[11] = Binding affinity to D-Mannose assessed as molar ratio of sugar to compound in aggregate at 2 umol at pH 6 by 1H NMR analysis in presence of 20 umol CaCl2
[12] = Binding affinity to beta-L-[…]-OMe assessed as molar ratio of sugar to compound in aggregate at 2 umol incubated at 60 degC for 15 mins, room temperature for 1 hr, and 4 degC for 1 hr by co-precipitation method in presence of 100 umol CaCl2
[13] = Binding affinity to beta-D-Mannose-OMe assessed as molar ratio of sugar to compound in aggregate at 2 umol incubated at 60 degC for 15 mins, room temperature for 1 hr, and 4 degC for 1 hr by co-precipitation method in presence of 100 umol CaCl2
[14] = Binding affinity to L-Galactose assessed as molar ratio of sugar to compound in aggregate at 2 umol at pH 6 by 1H NMR analysis in presence of 20 umol CaCl2
[15] = Binding affinity to alpha-L-[…]-OMe assessed as molar ratio of sugar to compound in aggregate at 2 umol incubated at 60 degC for 15 mins, room temperature for 1 hr, and 4 degC for 1 hr by co-precipitation method in presence of 100 umol CaCl2
[16] = Binding affinity to Alpha-D-Mannose-OMe assessed as molar ratio of sugar to compound in aggregate at pH 4.5 by co-precipitation method in presence of Ca2+
[17] = Binding affinity to alpha-D-Glucose-OMe assessed as molar ratio of sugar to compound in aggregate at 2 umol at pH 6 by 1H NMR analysis in presence of 20 umol CaCl2
[18] = Binding affinity to alpha-D-Mannose-OMe assessed as molar ratio of sugar to compound in aggregate at 2 umol at pH 6 by 1H NMR analysis in presence of 20 umol CaCl2
[19] = Binding affinity to beta-L-[…]-OMe assessed as molar ratio of sugar to compound in aggregate at 2 umol at pH 6 by 1H NMR analysis in presence of 20 umol CaCl2
[20] = Binding affinity to beta-L-Galactose-OMe assessed as molar ratio of sugar to compound in aggregate at 2 umol at pH 6 by 1H NMR analysis in presence of 20 umol CaCl2
[21] = Binding affinity to beta-D-Mannose-OMe assessed as molar ratio of sugar to compound in aggregate at 2 umol at pH 6 by 1H NMR analysis in presence of 20 umol CaCl2
[22] = Binding affinity to L-Galactose assessed as molar ratio of sugar to compound in aggregate at 2 umol incubated at 60 degC for 15 mins, room temperature for 1 hr, and 4 degC for 1 hr by co-precipitation method in presence of 100 umol CaCl2
[23] = Binding affinity to alpha-D-Mannose-OMe assessed as molar ratio of sugar to compound in aggregate at 2 umol incubated at 60 degC for 15 mins, room temperature for 1 hr, and 4 degC for 1 hr by co-precipitation method in presence of 100 umol CaCl2

- Activity [1]: < 0.1 molar ratio
- Activity [2]: 0.28 molar ratio
- Activity [3]: 1.14 molar ratio
- Activity [4]: < 0.1 molar ratio
- Activity [5]: < 0.1 molar ratio
- Activity [6]: 0.32 molar ratio
- Activity [7]: 1.08 molar ratio
- Activity [8]: < 0.1 molar ratio
- Activity [9]: < 0.1 molar ratio
- Activity [10]: 0.57 molar ratio
- Activity [11]: 1.07 molar ratio
- Activity [12]: < 0.1 molar ratio
- Activity [13]: 1.08 molar ratio
- Activity [14]: < 0.1 molar ratio
- Activity [15]: < 0.1 molar ratio
- Activity [16]: 1.08 molar ratio
- Activity [17]: < 0.1 molar ratio
- Activity [18]: 1.13 molar ratio
- Activity [19]: 0.52 molar ratio
- Activity [20]: 0.6 molar ratio
- Activity [21]: 1.15 molar ratio
- Activity [22]: < 0.1 molar ratio
- Activity [23]: 1.11 molar ratio
Compound: CN[C@@H]1[C@H](O[C@@H]2OC[C@@H](O)[C@H](O)[C@H]2O)[C@@H](O)[C@H](O[C@H]2c3cc(C)c(C(=O)N[C@H](C)C(=O)O)c(O)c3-c3c(cc4c(c3O)C(=O)c3cc(OC)cc(O)c3C4=O)[C@@H]2O)O[C@@H]1C
